By IC50 is commonly meant the concentration that inhibits the measured activity by half.

In ChEMBL document CHEMBL3351345, “Design, synthesis, and structure-activity relationships of novel benzothiazole derivatives bearing the ortho-hydroxy N-carbamoylhydrazone moiety as potent antitumor agents” (Eur J Med Chem, 2014) one finds IC50 data, which are given here for 27 molecules.

One test concerns NCI-H226. Nature of the test: Antiproliferative activity against human NCI-H226 cells after 72 hrs by MTT assay. Type of test: functional, cell-based. Particulars: NCI-H226, 72 h.
In the next test the test system is SK-N-SH. Nature of the test: Antiproliferative activity against human SK-N-SH cells after 72 hrs by MTT assay. The class given is functional, cell-based. (In general: Tetrazolium dyes change colour on reduction, which living cells bring about.)
The test system of a further test is HT-29. Nature of the test: Antiproliferative activity against human HT-29 cells after 72 hrs by MTT assay. Type of test: functional, cell-based. The conditions noted are these: HT-29, 72 h.
Test [1] is described as follows: Antiproliferative activity against human MKN45 cells after 72 hrs by MTT assay. The class given is functional, cell-based. The conditions noted are these: MKN-45, 72 h.
The next test relates to MDA-MB-231. Nature of the test: Antiproliferative activity against human MDA-MB-231 cells after 72 hrs by MTT assay. The conditions noted are these: MDA-MB-231, 72 h.

Take `CC1CCN(Cc2ccc3nc(NC(=O)N/N=C/c4ccccc4O)sc3c2)CC1`: the IC50 with NCI-H226 was determined as 2960 nM; with SK-N-SH it was 4360 nM; in the test on HT-29, 10400 nM; in test [1] it was 680 nM; with MDA-MB-231, 12300 nM.

`CCN(CC)Cc1ccc2nc(NC(=O)N/N=C/c3ccc(O)cc3O)sc2c1`: the IC50 in the test on NCI-H226 was 5160 nM; with SK-N-SH, 6050 nM; with HT-29 it was 23700 nM; in test [1], 1740 nM; in the test on MDA-MB-231, 4110 nM.

For the molecule `O=C(N/N=C/c1ccc(OCc2cccc(Cl)c2)cc1O)Nc1nc2ccc(N3CCOCC3)cc2s1`, the IC50 is 790 nM in the test with NCI-H226; 1480 nM in the test with SK-N-SH; 590 nM in the test on HT-29; 280 nM in test [1]; 1180 nM in the test on MDA-MB-231.

In the case of `O=C(N/N=C/c1ccccc1O)Nc1nc2ccc(N3CCOCC3)cc2s1`, the IC50 in the test on NCI-H226 is 4260 nM; with SK-N-SH, 11700 nM; with HT-29, 67900 nM; in test [1] it was 9310 nM; with MDA-MB-231, greater than 100000 nM.

For the molecule `CCN(CC)Cc1ccc2nc(NC(=O)N/N=C/c3ccc(OCc4cccc(Cl)c4)cc3O)sc2c1`, the IC50 was 1300 nM in the test on NCI-H226; 1830 nM with SK-N-SH; 1880 nM in the test with HT-29; 420 nM in test [1]; 570 nM with MDA-MB-231.

With `CN(C)Cc1ccc2nc(NC(=O)N/N=C/c3ccc(OCc4ccc(C(C)(C)C)cc4)cc3O)sc2c1`, the IC50 with NCI-H226 was 830 nM; with SK-N-SH it was 1660 nM; in the test on HT-29, 1510 nM; in test [1], 1040 nM; with MDA-MB-231, 1140 nM.

Regarding `O=C(N/N=C/c1ccc(OCc2ccc(Cl)cc2Cl)cc1O)Nc1nc2ccc(N3CCOCC3)cc2s1`, the IC50 in the test with NCI-H226 stood at 1220 nM; in the test on SK-N-SH, 3140 nM; in the test with HT-29, 4720 nM; in test [1] it was 1750 nM; in the test on MDA-MB-231, 15100 nM.

For `CCN(CC)Cc1ccc2nc(NC(=O)N/N=C/c3ccc(OCc4ccc(C)cc4)cc3O)sc2c1`, the IC50 in the test on NCI-H226 amounted to 1010 nM; in the test on SK-N-SH, 1430 nM; in the test on HT-29 it was 1330 nM; in test [1], 580 nM; with MDA-MB-231 it was 710 nM.

Take `CN(C)Cc1ccc2nc(NC(=O)N/N=C/c3ccc(OCc4csc(Cc5ccc6c(c5)OCO6)n4)cc3O)sc2c1`: the IC50 is 720 nM in the test with NCI-H226; 790 nM with SK-N-SH; 1880 nM in the test on HT-29; 620 nM in test [1]; 1040 nM with MDA-MB-231.

For the molecule `Cc1ccc(COc2ccc(/C=N/NC(=O)Nc3nc4ccc(CN5CCC(C)CC5)cc4s3)c(O)c2)cc1`, the IC50 with NCI-H226 came out at 1060 nM; with SK-N-SH, 1560 nM; with HT-29, 1040 nM; in test [1], 310 nM; in the test with MDA-MB-231, 1510 nM.

On to `CCN(CC)Cc1ccc2nc(NC(=O)N/N=C/c3ccc(OCc4ccccc4Cl)cc3O)sc2c1`, for which the IC50 stood at 560 nM in the test on NCI-H226; 2010 nM in the test with SK-N-SH; 2230 nM with HT-29; 420 nM in test [1]; 740 nM in the test on MDA-MB-231.

Take `CC1CCN(Cc2ccc3nc(NC(=O)N/N=C/c4ccc(OCc5ccccc5Cl)cc4O)sc3c2)CC1`: the 50% inhibitory concentration (IC50) is 790 nM in the test on NCI-H226; 850 nM in the test with SK-N-SH; 1030 nM in the test with HT-29; 760 nM in test [1]; 2300 nM in the test on MDA-MB-231.

On to `CN(C)Cc1ccc2nc(NC(=O)N/N=C/c3ccc(O)cc3O)sc2c1`, for which the IC50 with NCI-H226 was 2980 nM; in the test on SK-N-SH it was 14300 nM; in the test on HT-29 it was 77900 nM; in test [1] it was 2850 nM; in the test with MDA-MB-231, greater than 100000 nM.

On to `CC1CCN(Cc2ccc3nc(NC(=O)N/N=C/c4ccc(OCc5csc(Cc6ccc7c(c6)OCO7)n5)cc4O)sc3c2)CC1`, for which the IC50 with NCI-H226 turned out to be 810 nM; with SK-N-SH, 1250 nM; in the test on HT-29, 1120 nM; in test [1], 550 nM; with MDA-MB-231, 880 nM.

With `CN(C)Cc1ccc2nc(NC(=O)N/N=C/c3ccc(OCc4ccc(Cl)cc4)cc3O)sc2c1`, the IC50 was found to be 1170 nM in the test on NCI-H226; 2740 nM in the test with SK-N-SH; 2150 nM in the test with HT-29; 700 nM in test [1]; 600 nM in the test with MDA-MB-231.

On to `O=C(N/N=C/c1ccccc1O)Nc1nc2ccc(CN3CCOCC3)cc2s1`, for which the half-maximal inhibitory concentration (IC50) in the test with NCI-H226 was 2710 nM; with SK-N-SH, 7050 nM; in the test with HT-29, 10300 nM; in test [1] it was 2340 nM; with MDA-MB-231, 12000 nM.

Consider `CC1CCN(Cc2ccc3nc(NC(=O)N/N=C/c4ccc(OCc5ccc(Cl)cc5Cl)cc4O)sc3c2)CC1`, for which the IC50 in the test with NCI-H226 is 390 nM; in the test with SK-N-SH, 1030 nM; in the test on HT-29, 1000 nM; in test [1], 280 nM; in the test on MDA-MB-231, 300 nM.

As to `CC1CCN(Cc2ccc3nc(NC(=O)N/N=C/c4ccc(OCc5ccccc5)cc4O)sc3c2)CC1`, the IC50 was found to be 610 nM in the test on NCI-H226, 1320 nM with SK-N-SH and 1570 nM in the test on HT-29.

On to `CCN(CC)Cc1ccc2nc(NC(=O)N/N=C/c3ccc(OCc4ccccc4)cc3O)sc2c1`, for which the IC50 with NCI-H226 turned out to be 880 nM; with SK-N-SH, 1670 nM; in the test on HT-29 it was 1440 nM.

Regarding `O=C(N/N=C/c1ccc(OCc2csc(Cc3ccc4c(c3)OCO4)n2)cc1O)Nc1nc2ccc(N3CCOCC3)cc2s1`, the IC50 in the test on NCI-H226 was determined as 2140 nM; in the test on SK-N-SH it was 6210 nM; in the test with HT-29, 2310 nM; in test [1] it was 1010 nM; with MDA-MB-231, 4030 nM.

On to `CCN(CC)Cc1ccc2nc(NC(=O)N/N=C/c3ccccc3O)sc2c1`, for which the half-inhibitory concentration (IC50) in the test on NCI-H226 worked out at 1810 nM; with SK-N-SH, 5790 nM; with HT-29, 4030 nM; in test [1] it was 1710 nM; in the test with MDA-MB-231 it was 11300 nM.

On to `Cc1ccc(COc2ccc(/C=N/NC(=O)Nc3nc4ccc(CN(C)C)cc4s3)c(O)c2)cc1`, for which the IC50 in the test with NCI-H226 stood at 1080 nM; in the test with SK-N-SH, 2580 nM; in the test on HT-29, 2130 nM; in test [1], 1270 nM; in the test on MDA-MB-231, 2650 nM.

Turning to `CC1CCN(Cc2ccc3nc(NC(=O)N/N=C/c4ccc(O)cc4O)sc3c2)CC1`, the IC50 amounted to 4610 nM with NCI-H226; 7740 nM in the test on SK-N-SH; 2730 nM with HT-29; 4090 nM in test [1]; 1660 nM in the test with MDA-MB-231.

Turning to `CN(C)Cc1ccc2nc(NC(=O)N/N=C/c3ccc(OCc4ccccc4Cl)cc3O)sc2c1`, the IC50 is 580 nM with NCI-H226; 2940 nM with SK-N-SH; 1610 nM in the test on HT-29; 330 nM in test [1]; 680 nM with MDA-MB-231.

Take `CC1CCN(Cc2ccc3nc(NC(=O)N/N=C/c4ccc(OCc5ccc(Cl)cc5)cc4O)sc3c2)CC1`: the IC50 with NCI-H226 came out at 410 nM; with SK-N-SH, 1060 nM; in the test with HT-29 it was 950 nM; in test [1], 210 nM; in the test on MDA-MB-231 it was 880 nM.

With `CCN(CC)Cc1ccc2nc(NC(=O)N/N=C/c3ccc(OCc4ccc(Cl)cc4Cl)cc3O)sc2c1`, the IC50 with NCI-H226 is 700 nM; with SK-N-SH it was 1040 nM; in the test on HT-29, 2430 nM; in test [1], 520 nM; in the test on MDA-MB-231, 1520 nM.

For the molecule `CN(C)Cc1ccc2nc(NC(=O)N/N=C/c3ccccc3O)sc2c1`, the IC50 in the test with NCI-H226 came to 2030 nM; with SK-N-SH, 5140 nM; in the test on HT-29, 5960 nM; in test [1] it was 1540 nM; in the test with MDA-MB-231, 5950 nM.
